{"source": "patent US10251874B2", "about": "“Crystalline forms of a JAK inhibitor compound” (THERAVANCE BIOPHARMA R&D IP, LLC, priority 2017, dated 2019)", "key": {"Tyk2": {"target": "T1, Tyk2 (Homo sapiens, UniProt P29597)", "T1 construct": "GST; purchased Life Technologies", "T1 sequence (P29597 whole entry)": "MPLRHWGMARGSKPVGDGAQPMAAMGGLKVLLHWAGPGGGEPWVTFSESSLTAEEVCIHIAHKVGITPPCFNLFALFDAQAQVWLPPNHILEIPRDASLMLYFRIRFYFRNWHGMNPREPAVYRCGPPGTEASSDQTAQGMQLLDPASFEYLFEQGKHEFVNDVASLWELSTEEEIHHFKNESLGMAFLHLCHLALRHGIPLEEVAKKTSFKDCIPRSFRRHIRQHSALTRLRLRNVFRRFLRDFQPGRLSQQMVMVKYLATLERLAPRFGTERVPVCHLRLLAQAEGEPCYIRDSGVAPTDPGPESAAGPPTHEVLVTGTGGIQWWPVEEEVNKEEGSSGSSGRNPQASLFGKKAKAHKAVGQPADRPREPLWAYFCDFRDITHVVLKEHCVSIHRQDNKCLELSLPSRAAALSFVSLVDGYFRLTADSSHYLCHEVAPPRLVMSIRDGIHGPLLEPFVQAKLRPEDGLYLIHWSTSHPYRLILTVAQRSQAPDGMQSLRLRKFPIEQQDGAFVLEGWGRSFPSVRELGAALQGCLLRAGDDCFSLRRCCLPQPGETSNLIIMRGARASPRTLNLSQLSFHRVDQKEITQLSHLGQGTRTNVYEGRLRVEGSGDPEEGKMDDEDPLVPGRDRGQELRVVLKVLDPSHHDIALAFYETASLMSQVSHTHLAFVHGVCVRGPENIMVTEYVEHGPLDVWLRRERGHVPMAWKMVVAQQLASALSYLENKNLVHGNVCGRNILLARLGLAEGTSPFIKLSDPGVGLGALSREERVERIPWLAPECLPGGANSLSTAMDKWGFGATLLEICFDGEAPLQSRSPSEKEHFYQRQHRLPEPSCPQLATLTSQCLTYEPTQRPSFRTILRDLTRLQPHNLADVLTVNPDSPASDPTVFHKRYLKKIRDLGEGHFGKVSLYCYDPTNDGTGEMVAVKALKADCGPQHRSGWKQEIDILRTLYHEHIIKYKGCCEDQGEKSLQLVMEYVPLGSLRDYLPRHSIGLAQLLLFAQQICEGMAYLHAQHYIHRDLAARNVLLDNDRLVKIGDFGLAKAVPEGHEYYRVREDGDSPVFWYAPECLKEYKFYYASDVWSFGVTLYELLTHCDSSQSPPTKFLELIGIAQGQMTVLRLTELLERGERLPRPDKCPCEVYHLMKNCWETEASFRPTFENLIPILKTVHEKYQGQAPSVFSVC", "assay": "Assay 1: LanthaScreen biochemical JAK kinase assay, Tyk2", "settings": "converted from pIC50 by Cheng-Prusoff; ATP at Km 10 μM; read-out: Tyk2 pKi (converted)", "protocol": "A panel of four LanthaScreen JAK biochemical assays (JAK1, 2, 3 and Tyk2) were carried in a common kinase reaction buffer (50 mM HEPES, pH 7.5, 0.01% Brij-35, 10 mM MgCl2, and 1 mM EGTA). Recombinant GST-tagged JAK enzymes and a GFP-tagged STAT1 peptide substrate were obtained from Life Technologies.\nThe serially diluted compound was pre-incubated with each of the four JAK enzymes and the substrate in white 384-well microplates (Corning) at ambient temperature for lh. ATP was subsequently added to initiate the kinase reactions in 10 μL total volume, with 1% DMSO. […] The plates were allowed to incubate at ambient temperature for lh before being read on the EnVision reader (Perkin Elmer). Emission ratio signals (520 nm/495 nm) were recorded and utilized to calculate the percent inhibition values based on DMSO and background controls.\nFor dose-response analysis, percent inhibition data were plotted vs. compound concentrations, and IC50 values were determined from a 4-parameter robust fit model with the Prism software (GraphPad Software). Results were expressed as pIC50 (negative logarithm of IC50) and subsequently converted to pK1 (negative logarithm of dissociation constant, Ki) using the Cheng-Prusoff equation."}, "[1]": {"tested_on": "IL-2/anti-CD3 stimulated IFNγ in human PBMCs", "assay": "Assay 3: Inhibition of IL-2/anti-CD3 stimulated IFNγ in human PBMCs", "assay_type": "cell-based", "settings": "PBMC, 24 h stimulation, ELISA, read-out: pIC50, inhibition of IL-2/anti-CD3 stimulated IFNγ (converted)", "from_the_text": "Data are expressed as pIC50 (negative decadic logarithm IC50) values."}, "[2]": {"tested_on": "IL-4 stimulated pSTAT6 in CD3+ T cells", "assay": "Assay 5: Inhibition of IL-4 stimulated pSTAT6 in CD3+ T cells", "assay_type": "cell-based", "settings": "T-cell; CD3+ T cells in human PBMCs, flow cytometry; read-out: pIC50, inhibition of IL-4 stimulated pSTAT6 (converted)", "protocol": "The potency of the test compound for inhibition of interleukin-4 (IL-4) stimulated STAT6 phosphorylation was measured in CD3-positive (CD3+) T cells in human peripheral blood mononuclear cells (PBMCs) isolated from human whole blood (Stanford Blood Center) using flow cytometry. Because IL-4 signals through JAK, this assay provides a measure of JAK cellular potency.\nCD3+ T cells were identified using a […] (PE) conjugated anti-CD3 antibody (Clone UCHT1, BD Biosciences), while an Alexa Fluor 647 conjugated anti-pSTAT6 antibody (pY641, Clone 18/P, BD Biosciences) was used to detect STAT6 phosphorylation.\nHuman peripheral blood mononuclear cells (PBMC) were isolated from human whole blood of healthy donors as in Assays 3 and 4. […] After incubation, cells were washed twice in FACS buffer before being analyzed using a LSRII flow cytometer (BD Biosciences).\nTo determine the inhibitory potency of the test compound in response to IL-4, the median fluorescent intensity (MFI) of pSTAT6 was measured in CD3+ T cells. IC50 values were determined from analysis of the inhibition curves of MFI vs compound concentration. Data are expressed as pIC50 (negative decadic logarithm IC50)."}, "[3]": {"tested_on": "IL-6 induced pSTAT3 in retina/choroid", "assay": "Assay 13: Pharmacodynamic assay: inhibition of IL6-induced pSTAT3 in rats", "assay_type": "in vivo, Lewis rats", "settings": "rat, IVT suspension of crystalline compound 1 of Example 2, 15 μg dose, 3 day pre-treatment", "protocol": "The ability of a single intravitreal administration of test compound to inhibit IL-6 induced pSTAT3 was measured in rat retina/choroid homogenates.\nSuspension formulations were prepared by combining crystalline compound 1 of Example 2 with 0.5% hydroxypropyl methylcellulose (HPMC E5 LV), 0.02% Tween 80, and 0.9% sodium chloride in purified water to attain target concentrations of 3 mg/mL and 10 mg/mL.\nFemale Lewis rats were intravitreally (IVT) dosed (5 μL per eye) with the suspension formulations or with the drug vehicle. Three days later, IL-6 (Peprotech; 0.1 mg/mL; 5 μL per eye) or vehicle was intravitreally administered to induce pSTAT3.\nOcular tissues were dissected one hour after the second IVT injection with IL-6. The retina/choroid tissues were homogenized and pSTAT3 levels were measured using an ELISA (Cell Signaling Technology). The percent inhibition of IL-6-induced pSTAT3 was calculated in comparison to the vehicle/vehicle and vehicle/IL-6 groups. Inhibition of greater than 100% reflects a reduction of pSTAT3 levels to below those observed in the vehicle/vehicle group."}}}
{"molecule": "CCc1cc(O)c(F)cc1-c1ccc2c(-c3nc4c([nH]3)CCN(C3CCN(C)CC3)C4)n[nH]c2c1", "note": "[Compound 1, 5-ethyl-2-fluoro-4-(3-(5-(1-methylpiperidin-4-yl)-4,5,6,7-tetrahydro-1H-imidazo[4,5-c]pyridin-2-yl)-1H-indazol-6-yl)phenol]", "values": [{"measurement": "Ki", "setting": "Tyk2", "value": 0.158, "unit": "nM"}, {"measurement": "IC50", "setting": "[1]", "value": "~50.1", "unit": "nM"}, {"measurement": "IC50", "setting": "[2]", "value": 7.94, "unit": "nM"}, {"measurement": "inhibition of IL-6-induced pSTAT3 in retina/choroid tissues", "setting": "[3]", "value": 33, "unit": "%"}]}
